Test results reported in paper PMC9144480 (Pharmaceuticals, 2022).
“Also recorded” adds a separate entry of the source. Read-outs that look alike come from different tables or passages of the source.

Experiments:
[1] = test system: pseudovirus bearing SARS-CoV-2 S protein (original strain); test: microbe, parasite or virus in culture; format: cell-based
[2] = test system: influenza-like illness during COVID-19 pandemic; conditions: 2500 patients, MeBlu 75 mg t.i.d., March 2020; ref [49]; cited from earlier work
[3] = test system: SARS-CoV-2; conditions: cited from earlier work
[4] = test system: CD40–CD154 PPI; conditions: ref [23]; cited from earlier work
[5] = test system: HEK293T cells; test: Cytotoxicity, MTT assay; format: cell-based, human; conditions: 48 h with MeBlu + 48 h culture
Experimental: For the MTT assay, HEK293T cells were seeded onto 96 wells with the density of 5.0 × 10^4 cells per well. […] After that, cells were incubated with MTT reagent at 37 °C for 2 h. The medium was removed, and dimethyl sulfoxide was added. Cell viability was evaluated using a microplate reader at 570 nm absorbance (SpectraMax iD3, Molecular DEVICES, San Jose, CA, USA).

[6] = test system: VSV-SARS-CoV-2-Sdel18 pseudovirus; conditions: Vero E6; ref [40]; read-out: IC50, VSV-SARS-CoV-2-Sdel18 pseudovirus entry; cited from earlier work
[7] = test system: SARS-CoV-2 pseudovirus; test: microbe, parasite or virus in culture; conditions: Severe acute respiratory syndrome-related coronavirus, HEK-293T, read-out: IC50, SARS-CoV-2 pseudovirus cell entry
[8] = biological target: T1, HCV E–CD81 PPI (UniProt P27958+P60033); test: biochemical; format: binding
T1 construct: hepatitis C virus envelope glycoprotein E with CD81; purchased R&D Systems 9146-HC; 9144-CD
T1 sequence (P60033 113-201): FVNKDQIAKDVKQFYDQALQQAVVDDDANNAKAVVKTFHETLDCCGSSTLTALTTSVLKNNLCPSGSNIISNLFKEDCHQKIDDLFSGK
T1 sequence (P27958 384-746): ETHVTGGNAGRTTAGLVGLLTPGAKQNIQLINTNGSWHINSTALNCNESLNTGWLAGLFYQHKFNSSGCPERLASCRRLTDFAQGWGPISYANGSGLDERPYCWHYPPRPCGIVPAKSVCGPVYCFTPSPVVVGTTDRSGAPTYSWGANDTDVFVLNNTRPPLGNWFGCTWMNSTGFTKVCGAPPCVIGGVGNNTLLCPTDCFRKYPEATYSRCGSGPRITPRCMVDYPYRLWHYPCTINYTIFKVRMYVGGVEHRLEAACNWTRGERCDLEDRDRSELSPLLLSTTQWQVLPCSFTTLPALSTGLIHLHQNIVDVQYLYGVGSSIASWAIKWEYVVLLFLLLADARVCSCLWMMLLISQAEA

[9] = test system: SARS-CoV-2 (B.1.5); test: microbe, parasite or virus in culture; format: cell-based; conditions: Severe acute respiratory syndrome coronavirus 2, Vero C1008, 48 h, read-out: IC50, inhibition of SARS-CoV-2 replication
[10] = biological target: hACE2 (Homo sapiens, UniProt Q9BYF1); test: Surface plasmon resonance (single-cycle kinetics) binding to hACE2; conditions: data not shown
Sequence of hACE2 (Q9BYF1 18-805): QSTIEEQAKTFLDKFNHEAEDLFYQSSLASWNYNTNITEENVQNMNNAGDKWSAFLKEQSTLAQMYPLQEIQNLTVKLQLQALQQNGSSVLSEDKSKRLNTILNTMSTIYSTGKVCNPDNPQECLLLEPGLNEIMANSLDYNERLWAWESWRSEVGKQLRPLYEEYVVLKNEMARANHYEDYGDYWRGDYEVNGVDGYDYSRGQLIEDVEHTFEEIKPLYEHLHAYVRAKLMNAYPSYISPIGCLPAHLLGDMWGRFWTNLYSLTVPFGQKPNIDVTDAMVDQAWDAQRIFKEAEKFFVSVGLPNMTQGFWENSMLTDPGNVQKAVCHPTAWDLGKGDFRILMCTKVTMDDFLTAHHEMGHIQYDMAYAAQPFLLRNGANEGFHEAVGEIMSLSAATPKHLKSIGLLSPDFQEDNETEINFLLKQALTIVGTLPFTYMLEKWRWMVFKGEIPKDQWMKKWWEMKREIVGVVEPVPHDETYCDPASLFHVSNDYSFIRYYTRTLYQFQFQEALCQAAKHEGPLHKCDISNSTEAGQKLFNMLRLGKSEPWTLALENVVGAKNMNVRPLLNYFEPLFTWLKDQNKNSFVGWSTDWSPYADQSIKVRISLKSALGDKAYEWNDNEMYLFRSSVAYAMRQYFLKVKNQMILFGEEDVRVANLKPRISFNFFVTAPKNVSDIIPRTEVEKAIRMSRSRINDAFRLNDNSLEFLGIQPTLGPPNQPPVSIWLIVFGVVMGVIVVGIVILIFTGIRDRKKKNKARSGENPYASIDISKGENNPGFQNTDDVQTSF

[11] = test system: COVID-19; conditions: human, in vivo, iv, 1 mg/kg; cited from earlier work
[12] = biological target: T2, HCoV-NL63 S1–hACE2 PPI (Homo sapiens, UniProt Q9BYF1); test: biochemical; format: binding
T2 construct: HCoV-NL63 S1 (His tag, 40600-V08H); purchased Sino Biological 40600-V08H; 10108-H05H
T2 sequence (Q9BYF1 18-740): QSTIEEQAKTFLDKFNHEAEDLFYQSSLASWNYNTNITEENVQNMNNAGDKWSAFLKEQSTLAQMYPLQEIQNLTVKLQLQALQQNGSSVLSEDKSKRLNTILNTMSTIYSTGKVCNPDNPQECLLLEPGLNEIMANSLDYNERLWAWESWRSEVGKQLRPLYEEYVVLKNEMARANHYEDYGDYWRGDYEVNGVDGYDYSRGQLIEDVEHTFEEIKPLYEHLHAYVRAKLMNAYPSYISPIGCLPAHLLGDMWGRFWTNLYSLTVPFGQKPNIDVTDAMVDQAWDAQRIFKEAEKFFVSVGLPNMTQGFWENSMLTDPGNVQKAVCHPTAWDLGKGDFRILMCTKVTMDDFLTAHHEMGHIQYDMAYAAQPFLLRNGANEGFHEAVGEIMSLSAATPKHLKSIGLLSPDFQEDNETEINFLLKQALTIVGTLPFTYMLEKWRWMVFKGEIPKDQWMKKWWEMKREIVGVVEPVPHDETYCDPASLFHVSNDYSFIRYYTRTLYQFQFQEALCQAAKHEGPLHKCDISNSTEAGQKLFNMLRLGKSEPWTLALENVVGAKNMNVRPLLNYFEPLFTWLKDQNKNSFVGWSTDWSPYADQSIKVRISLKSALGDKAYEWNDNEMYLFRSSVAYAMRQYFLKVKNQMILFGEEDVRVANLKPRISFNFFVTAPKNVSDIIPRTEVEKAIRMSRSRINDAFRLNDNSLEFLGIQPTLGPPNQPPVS

[13] = test system: SARS-CoV-2; conditions: read-out: IC50, concentration levels that seem to provide antiviral activity; overall range over this work and published studies; ref Table 1; cited from earlier work
[14] = biological target: T3, SARS-CoV-2 spike RBD (Severe acute respiratory syndrome coronavirus 2, UniProt P0DTC2); test: Surface plasmon resonance binding to spike RBD; conditions: single and multicycle kinetics; qualitative, not 1:1 binding
T3 construct: SARS-CoV-2 spike RBD (His-tagged, Arg319-Ph541); RayBiotech; His tag; purchased RayBiotech
Experimental: SPR was performed at Reaction Biology (Malvern, PA, USA) using single and multicycle kinetics to assess the binding to the SARS-CoV-2 spike RBD (His-tagged, Arg319-Ph541; RayBiotech; Peachtree Corners, GA, USA) and determine the kinetics/affinity. Measurements were performed on a Biacore 8K (Cytiva) with a series S CM5 (Cytiva) sensor chip. Spike RBD was immobilized via amine coupling at pH 5.5 to immobilization levels of ~1500–2300 RU (single-cycle) and ~2500 RU (multi-cycle). A running buffer of PBS-p+ (20 mM phosphate buffer with 2.7 mM KCl, 137 mM NaCl, and 0.05% surfactant Tween20) with 1% DMSO was used. All data was solvent corrected, reference subtracted, and blank subtracted using the Biacore Insight Evaluation Software. To try and obtain kinetic/affinity parameters, the data was evaluated using a 1:1 kinetic binding model. However, the binding behavior appears to be more complex than can be approximated using a 1:1 binding model, which prevents a quantitative analysis of the SPR binding data.

[15] = test system: SARS-CoV-2; conditions: read-out: IC50, SARS-CoV-2 antiviral activity; Vero E6; ref [36]; cited from earlier work
[16] = ref [19],[21],[22]; cited from earlier work
[17] = test system: influenza virus H1N1; conditions: ref [36]; cited from earlier work
[18] = test system: COVID-19; conditions: cited from earlier work
[19] = test system: hCoV-229E; conditions: read-out: IC50, image-based multicycle replication assay; Huh7; ref [41]; cited from earlier work
[20] = biological target: T4, IL-2–IL-2Rα PPI (Homo sapiens, UniProt P01589+P60568); test: biochemical; format: binding
T4 construct: purchased ACROBiosystems IL2-H52H8; ILA-H5251
T4 sequence (P01589 22-213): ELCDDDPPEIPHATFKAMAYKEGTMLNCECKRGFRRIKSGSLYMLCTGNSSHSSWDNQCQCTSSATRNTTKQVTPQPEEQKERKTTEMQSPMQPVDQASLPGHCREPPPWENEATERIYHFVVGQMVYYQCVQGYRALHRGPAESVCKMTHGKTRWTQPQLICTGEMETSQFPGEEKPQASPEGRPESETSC
T4 sequence (P60568 21-153): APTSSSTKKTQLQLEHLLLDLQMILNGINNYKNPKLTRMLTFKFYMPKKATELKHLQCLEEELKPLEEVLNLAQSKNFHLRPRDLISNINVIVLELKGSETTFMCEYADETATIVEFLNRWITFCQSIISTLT

[21] = cited from earlier work
[22] = test system: TNF-R1−TNFα PPI; conditions: ref [23]; cited from earlier work
[23] = test system: COVID-19; conditions: cited from earlier work; remark: listed apart in the source
[24] = Pseudovirus, HEK-293T, read-out: IC50, inhibition of cell entry of pseudovirus

O=S(=O)(O)c1ccc(N=Nc2c(O)ccc3cc(S(=O)(=O)O)ccc23)cc1 [SY(FD&C#6), sunset yellow FCF]
IC50 [1, 24]: > 500000 nM

CCN(CCO)CCCC(C)Nc1ccnc2cc(Cl)ccc12 (stereo not drawn) [HCQ, hydroxychloroquine]
IC50 [1, 24]: > 500000 nM

Nc1c(/N=N/c2ccc([N+](=O)[O-])cc2)c(S(=O)(=O)O)cc2cc(S(=O)(=O)O)c(/N=N/c3ccccc3)c(O)c12 [NBlBk, naphthol blue black]
IC50 [1, 24]: > 500000 nM

CN(C)c1ccc2nc3ccc(=[N+](C)C)cc-3sc2c1 [MeBlu, methylene blue]
patients who developed influenza-like illness [2]: none
IC50 ([1]; Pseudovirus, HEK-293T, read-out: IC50, inhibition of cell entry of pseudovirus, BacMam pseudovirus, original strain, HEK293T): 3600 nM
IC50 ([1]; read-out: IC50, inhibition of cell entry of pseudovirus, BacMam pseudovirus, original strain, HEK293T): 3640 nM
inhibition of CD40–CD154 (CD40L) PPI [4]: inhibited; also recorded: low micromolar
TC50, cell viability (MTT) [5]: 57900 nM
IC50 [6]: 9000 nM
IC50 [7]: 3000 to 5000 nM
IC50 [8]: 800 nM
SPR binding to hACE2 [10]: low micromolar range
side effects or adverse events [11]: no major side effects or adverse events
IC50 [12]: 1930 nM
SPR binding to SARS-CoV-2 spike RBD [14]: low‐micromolar binding; also recorded: low micromolar range
dose above which undesired side effects (nausea, vomiting, hemolysis) are increasingly common [16]: higher than 7 mg/kg
activity against influenza virus H1N1 [17]: Also active against influenza virus H1N1
treated patients who responded well to the treatment ([18]; Phase 1, MeBlu 1 mg/kg with vitamin C and N-acetyl cysteine, critically ill, ref [50]): four of the five
hospital stays ([18]; Phase 2, vs. 11.7 ± 6.6 without MeBlu, p = 0.004, ref [51]): 7.3 ± 4.7 days
mortality ([18]; Phase 2, vs. 22.5% without MeBlu, ref [51]): 12.5%
hospital stays ([18]; Phase 3, oral MeBlu added to standard care, 223 patients, vs. 10.6 ± 9.2, p < 0.001, ref [52]): 6.2 ± 3.1
mortality ([18]; Phase 3, vs. 21.4%, p = 0.07, ref [52]): 12.2%
IC50 [19]: 1400 nM
IC50 [20]: 370 nM
trough levels ([21]; 207 mg/day (69 mg, t.i.d., p.o.), ref [43]): 6 to 7 µM
oral bioavailability (F) ([21]; ref [42]): ≈ 80%
terminal elimination half-life (t1/2) ([21]; ref [42]): ≈ 14 h
inhibition of TNF-R1–TNFα PPI [22]: inhibited; also recorded: low micromolar
hospital stays ([23]; nebulized MeBlu, observational study, 63 patients, vs. 12, ref [55]): 9.17 days
